Target: Sigma non-opioid intracellular receptor 1 (Cavia porcellus) (UniProt Q60492)
Experiment: In vitro binding affinity towards Sigma receptor type 1 was determined by measuring its ability to displace [3H](+)-pentazocine from guinea pig brain membrane

Sigma non-opioid intracellular receptor 1 (Cavia porcellus), sequence (Q60492 whole entry, looked up): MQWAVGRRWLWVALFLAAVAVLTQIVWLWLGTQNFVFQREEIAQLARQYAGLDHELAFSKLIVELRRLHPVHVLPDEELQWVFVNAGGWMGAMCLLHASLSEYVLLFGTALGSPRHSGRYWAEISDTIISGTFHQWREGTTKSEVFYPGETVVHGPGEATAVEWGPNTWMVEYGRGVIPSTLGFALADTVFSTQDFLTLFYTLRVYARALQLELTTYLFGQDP

Row | Ki [nM] | Structure (SMILES)
1 | 21.7 | CN1CCC=C(c2nsnc2SCCF)C1
2 | 62.1 | CN1CCC=C(c2nsnc2SCCCF)C1

Reference: BindingDB's records for doi:10.1021/jm00001a002 (National Institutes of Health, 1995)
